Converted amounts (≈) assume the structure as drawn. The source made the active and inactive calls. No cut-off for these calls is given here.
Tests used:
[1] = target: Gamma-secretase; experiment: Inhibition of human gamma-secretase in HEK-APPswe cells assessed as amyloid beta42 production by electrochemiluminescence assay; assay type: cell-based
[2] = Permeability across basolateral to apical side in human Caco2 cells; assay type: ADME, cell-based; conditions: for Papp B→A: Caco-2, read-out: permeability; for permeability: Caco-2
[3] = Ratio of drug level in brain to plasma in C57BL/6 mouse; assay type: ADME, organism-based; conditions: brain and plasma, read-out: BPR
[4] = Inhibition of gamma-secretase in mouse primary cortical neurons cells assessed as amyloid beta42 production after 5 days by ELISA; assay type: cell-based, Cerebral cortex neuron; conditions: for IC50: Mus musculus, Cerebral cortex neuron, 120 h; for pIC50: cerebral cortex neuron
[5] = Permeability across apical to basolateral side in human Caco2 cells; assay type: ADME, cell-based; conditions: for Papp A→B: Caco-2, read-out: permeability; for permeability: Caco-2
[6] = tested on: Liver microsome; experiment: Intrinsic clearance in human liver microsomes measured pre ug of protein; assay type: ADME
[7] = target: Voltage-gated inwardly rectifying potassium channel KCNH2 (Homo sapiens, UniProt Q12809); experiment: Inhibition of human ERG
[8] = Solubility of the compound; assay type: physicochemical
[9] = tested on: Mus musculus; experiment: Dose normalized AUC in C57BL/6 mouse at 10 umol/kg, po; assay type: ADME, organism-based; conditions: in vivo
[10] = Oral bioavailability in C57BL/6 mouse at 10 umol/kg; assay type: ADME, organism-based; conditions: in vivo
[11] = tested on: Mus musculus; experiment: Reduction in amyloid beta42 production in C57BL/6 mouse brain at 50 umol/kg, po after 1.5 hrs by ELISA relative to vehicle treated control; assay type: functional; conditions: C57BL/6, Brain
[12] = tested on: Mus musculus; experiment: Dose normalized AUC in C57BL/6 mouse at 3 umol/kg, iv; assay type: ADME, organism-based; conditions: in vivo
[13] = tested on: Mus musculus; experiment: Reduction in amyloid beta42 production in C57BL/6 mouse brain at 150 umol/kg, po after 1.5 hrs by ELISA relative to vehicle treated control; assay type: functional; conditions: C57BL/6, Brain
[14] = Tmax in C57BL/6 mouse at 10 umol/kg, po; assay type: ADME, organism-based; conditions: in vivo
[15] = Half life in C57BL/6 mouse at 10 umol/kg, po; assay type: ADME, organism-based; conditions: in vivo
[16] = Clearance in C57BL/6 mouse at 3 umol/kg, iv; assay type: ADME, organism-based; conditions: in vivo
[17] = Volume of distribution at steady state in C57BL/6 mouse at 3 umol/kg, iv; assay type: ADME, organism-based; conditions: in vivo, read-out: Vdss
[18] = Cmax in C57BL/6 mouse at 10 umol/kg, po; assay type: ADME, organism-based; set-up: dose 10 umol/kg, route oral; conditions: in vivo
[19] = Half life in C57BL/6 mouse at 3 umol/kg, iv; assay type: ADME, organism-based; conditions: in vivo
[20] = target: T1, Gamma-secretase (Homo sapiens) (UniProt Q96BI3+Q9NZ42+Q8WW43+P49768+Q92542+P49810); experiment: Inhibition of human gamma-secretase in HEK-APPswe cells assessed as amyloid beta38 production at 10 nM by electrochemiluminescence assay; assay type: cell-based
[21] = target: T1, Gamma-secretase (Homo sapiens); experiment: Inhibition of human gamma-secretase in HEK-APPswe cells assessed as notch processing at 5 uM by electrochemiluminescence assay; assay type: cell-based
[22] = target: T1, Gamma-secretase (Homo sapiens); experiment: Inhibition of human gamma-secretase in HEK-APPswe cells assessed as amyloid beta40 production at 10 nM by electrochemiluminescence assay; assay type: cell-based
[23] = target: T1, Gamma-secretase (Homo sapiens); experiment: Inhibition of human gamma-secretase in HEK-APPswe cells assessed as amyloid beta39 production at 10 nM by electrochemiluminescence assay; assay type: cell-based
[24] = target: T1, Gamma-secretase (Homo sapiens); experiment: Inhibition of human gamma-secretase in HEK-APPswe cells assessed as amyloid beta37 production at 10 nM by electrochemiluminescence assay; assay type: cell-based
[25] = target: T1, Gamma-secretase (Homo sapiens); experiment: Inhibition of human gamma-secretase in HEK-APPswe cells assessed as amyloid beta42 production at 10 nM by electrochemiluminescence assay; assay type: cell-based
[26] = target: T1, Gamma-secretase (Homo sapiens); experiment: Inhibition of human gamma-secretase in HEK-APPswe cells assessed as notch processing at 8 uM by electrochemiluminescence assay; assay type: cell-based

Sequence of Voltage-gated inwardly rectifying potassium channel KCNH2 (Q12809 whole entry): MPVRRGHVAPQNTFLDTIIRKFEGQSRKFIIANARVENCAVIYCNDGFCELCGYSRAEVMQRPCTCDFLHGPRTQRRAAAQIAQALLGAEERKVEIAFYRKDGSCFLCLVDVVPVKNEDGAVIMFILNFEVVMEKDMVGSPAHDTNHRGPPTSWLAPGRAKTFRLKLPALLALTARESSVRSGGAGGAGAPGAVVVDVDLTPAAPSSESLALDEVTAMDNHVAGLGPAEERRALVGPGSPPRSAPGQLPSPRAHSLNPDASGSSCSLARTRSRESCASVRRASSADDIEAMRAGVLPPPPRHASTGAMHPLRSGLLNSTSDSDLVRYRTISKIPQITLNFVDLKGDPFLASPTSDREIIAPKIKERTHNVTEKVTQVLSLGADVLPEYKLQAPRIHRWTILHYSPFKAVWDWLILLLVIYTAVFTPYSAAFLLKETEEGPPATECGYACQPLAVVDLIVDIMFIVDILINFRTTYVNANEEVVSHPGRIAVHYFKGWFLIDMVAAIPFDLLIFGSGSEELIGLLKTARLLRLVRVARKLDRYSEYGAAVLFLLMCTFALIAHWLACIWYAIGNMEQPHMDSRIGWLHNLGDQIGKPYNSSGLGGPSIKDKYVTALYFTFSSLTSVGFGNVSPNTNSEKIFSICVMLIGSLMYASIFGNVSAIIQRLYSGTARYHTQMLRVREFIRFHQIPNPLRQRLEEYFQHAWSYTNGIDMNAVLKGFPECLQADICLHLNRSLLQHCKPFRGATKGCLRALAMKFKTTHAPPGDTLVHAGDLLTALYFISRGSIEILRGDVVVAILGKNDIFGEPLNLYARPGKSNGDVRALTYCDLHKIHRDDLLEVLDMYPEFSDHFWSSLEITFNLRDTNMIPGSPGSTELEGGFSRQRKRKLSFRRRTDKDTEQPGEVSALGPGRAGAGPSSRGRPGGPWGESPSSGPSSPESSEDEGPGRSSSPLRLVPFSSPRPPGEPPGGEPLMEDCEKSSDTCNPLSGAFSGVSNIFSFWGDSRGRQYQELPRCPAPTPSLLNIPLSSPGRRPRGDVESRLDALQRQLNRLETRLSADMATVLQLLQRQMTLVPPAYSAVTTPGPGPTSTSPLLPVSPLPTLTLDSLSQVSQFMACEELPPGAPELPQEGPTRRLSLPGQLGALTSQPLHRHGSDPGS

pIC50 [1]	Papp B→A [2] [×10⁻⁶ cm/s]	Kp [3]	IC50 [4] [nM]	Papp A→B [5] [×10⁻⁶ cm/s]	CLH [6] [µL/min]	solubility ([8]; read-out: solubility) [µM]	SMILES	IC50 [7] [nM]	other results
		0.11	15.8		88	< 1	COc1cc(Nc2nc3n(n2)C(C2CC2)CC(=O)N3Cc2cc(F)ccc2F)ccc1-n1cnc(C)c1 (configuration not stated)	33000	
8	13	0.72		22	52		COc1cc(Nc2nc3n(n2)C(C)CC(=O)N3Cc2ccccc2)ccc1-n1cnc(C)c1 (stereo in doubt; 19B) [listing 1 of 2 here]	3700	AUC/dose [9]: 0.27 kg·h/L; bioavailability [10]: 32%; inhibition in vivo at 50 µmol/kg [11]: 9%; pIC50 [4]: 7.7; AUC/dose [12]: 0.84 kg·h/L; inhibition in vivo at 150 µmol/kg [13]: 24%; Tmax [14]: 30 min; half-life [15]: 312 min; clearance [16]: 21 mL/min/kg; Vd [17]: 0.9 L/kg; Cmax [18]: 1200 nM; solubility [8]: 6 µM (≈ 2.66 µg/mL); half-life [19]: 36 min
7.9	12	0.24	79.4	36	30	< 1	COc1cc(Nc2nc3n(n2)CCC(=O)N3Cc2ccccc2)ccc1-n1cnc(C)c1	5700	
7.9		0.23	31.6		50	2 (≈ 0.951 µg/mL)	COc1cc(Nc2nc3n(n2)C(C)(C)CC(=O)N3Cc2ccc(F)cc2)ccc1-n1cnc(C)c1	5600	

Further lines, the molecule ahead of its results:

SMILES	pIC50 [1]	Papp B→A [2] [×10⁻⁶ cm/s]	Kp [3]	IC50 [4] [nM]	Papp A→B [5] [×10⁻⁶ cm/s]	CLH [6] [µL/min]	solubility ([8]; read-out: solubility) [µM]	IC50 [7] [nM]	other results
COc1cc(Nc2nc3n(n2)CCCC3c2ccccc2)ccc1-n1cnc(C)c1 (configuration not stated)	7.6	13	0.12	50.1	36				
COc1cc(Nc2nc3n(n2)C(C)CC(=O)N3CC2CC(F)(F)C2)ccc1-n1cnc(C)c1 (configuration not stated)		19	0.08	50.1	50	101	4 (≈ 1.83 µg/mL)	4400	
COc1cc(Nc2nc3n(n2)C(C)CCN3CC(C)(C)O)ccc1-n1cnc(C)c1 (configuration not stated)	6.5			316		33	330 (≈ 136 µg/mL)	33000	
COc1cc(Nc2nc3n(n2)CCC(O)N3Cc2ccccc2)ccc1-n1cnc(C)c1 (configuration not stated)	7.8		0.01	79.4		37	110 (≈ 47.5 µg/mL)		permeability [2]: 34 ×10⁻⁶ cm/s; permeability [5]: 12 ×10⁻⁶ cm/s
COc1cc(Nc2nc3n(n2)CCC(=O)N3Cc2ccccc2C(F)(F)F)ccc1-n1cnc(C)n1	7.3		0.68			19		33000	permeability [2]: 18 ×10⁻⁶ cm/s; permeability [5]: 45 ×10⁻⁶ cm/s
COc1cc(Nc2nc3n(n2)CCC(=O)N3Cc2ccccc2C)ccc1-c1ccnnc1	7.5	22	0.11	79.4	18	56	< 1	33000	
COc1cc(Nc2nc3n(n2)C(C2CC2)CCN3CC(C)(C)O)ccc1-n1cnc(C)c1 (stereo in doubt; 42A) [listing 1 of 2 here]						37			AUC/dose [9]: 0.61 kg·h/L; bioavailability [10]: 91%; pIC50 [4]: 7.5; AUC/dose [12]: 0.67 kg·h/L; Tmax [14]: 30 min; half-life [15]: 60 min; clearance [16]: 25 mL/min/kg; Vd [17]: 1.4 L/kg; Cmax [18]: 3800 nM; solubility [8]: 63 µM (≈ 27.6 µg/mL); half-life [19]: 54 min
COc1cc(Nc2nc3n(n2)CCCN3Cc2ccccc2)ccc1-n1cnc(C)c1	7.7			100		82	49 (≈ 20.4 µg/mL)	5000	
COc1cc(Nc2nc3n(n2)C(C2CC2)CCN3CC(C)(C)O)ccc1-n1cnc(C)c1 (stereo in doubt; 42A) [listing 2 of 2 here]									inhibition [20]: Active; Activity [21]: inactive; inhibition [22]: Active; inhibition [23]: Active; inhibition [24]: Active; inhibition [25]: Active
COc1cc(Nc2nc3n(n2)C(c2ccccc2)CCN3CC(C)(C)O)ccc1-n1cnc(C)c1 (configuration not stated)		19	0.01	25.1	35	39	230 (≈ 109 µg/mL)	26000	
COc1cc(Nc2nc3n(n2)CCCN3CCC2CC2)ccc1-n1cnc(C)c1	7.4			79.4		105	17 (≈ 6.69 µg/mL)	6200	
COc1cc(Nc2nc3n(n2)CCC(=O)N3Cc2ccccc2C)ccc1-c1cnnc(C)c1	8	6	0.07	39.8	14	109	< 1	33000	
COc1cc(Nc2nc3n(n2)CCC(=O)N3Cc2ccccc2C)ccc1-c1noc(C)n1	4.8	12	0.81		38	39	50 (≈ 22.3 µg/mL)	33000	
COc1cc(Nc2nc3n(n2)C(C)CC(=O)N3Cc2ccccc2)ccc1-n1cnc(C)c1 (stereo in doubt; 19B) [listing 2 of 2 here]									Activity [26]: inactive; inhibition [20]: inactive; inhibition [22]: inactive; inhibition [23]: inactive; inhibition [24]: inactive; inhibition [25]: Active

From ChEMBL document CHEMBL3390839, “Triazolopyrimidinones as -secretase modulators: structureactivity relationship, modulator profile, and in vivo profiling” (Medchemcomm, 2013)
